Data on 7 compounds can be found in patent US3987052A, “6-Phenyl-4H-s-triazolo[4,3-a][1,4]benzodiazepines” (priority 1969, dated 1976).

The structures appear in SMILES notation.

Holding throughout (type): in vivo
Experiment [1] has as its system mice. In words: Dish test: mice remaining in Petri dish for more than 3 minutes. As to conditions: Mus musculus. As for the experimental part: (§1) Sedative effects of 8-chloro-1-methyl-6-phenyl-4H-s-triazolo-[4,3-a][1,4]benzodiazepine are shown by the following tests in mice:
Dish test: Mice in Petri dishes (10 cm. diameter, 5 cm. high, partially embedded in wood shavings), climb out in a very short time, when not treated. Mice remaining in the dish for more than 3 minutes indicates tranquilization. ED50 equals the dose of test compound at which 50% of the mice remain in the dish.

For experiment [2], the system named is mice. In words: Pedestal test: mice staying on the pedestal for more than 1 minute. As to conditions: Mus musculus. As for the experimental part:
as §1
Pedestal test: The untreated mouse leaves the pedestal in less than a minute to climb back to the floor of the standard mouse box. Tranquilized mice will stay on the pedestal for more than 1 minute. The ED50 (intraperitoneal administration) is 0.20 mg./kg.; the ED50 (oral administration) is 0.9 mg.kg.

Experiment [3] concerns mice. In words: Nicotine antagonism test (nicotine salicylate 2 mg./kg.). The following applies: Mus musculus. As for the experimental part:
Nicotine antagonism test: Mice in a group of 6 are injected with the test compound (8-chloro-1-methyl-6-phenyl-4H-s-triazolo[4,3-a][1,4]benzodiazepine). Thirty minutes later the mice including control (untreated) mice are injected with nicotine salicylate (2 mg./kg.). The control mice show overstimulation, i.e., (1) running convulsions followed by (2) tonic extensor fits; followed by (3) death.
Ni =]nicotine antagonism (3) test

Experiment [4] concerns mice. In words: Chimney test: ability of mice to back up and out of a vertical glass cylinder within 30 seconds. As to conditions: Mus musculus, ip. As for the experimental part: as §1
Chimney test: [Med. Exp. 4, 145 (1961)]: The effective intraperitoneal dosage for 50% of mice (ED50) is 0.09 mg./kg. The test determines the ability of mice to back up and out of a vertical glass cylinder within 30 seconds. At the effective dosage, 50% of the mice failed doing it.

Experiment [5] deals with mice. The experiment is described as follows: Antagonism to strychnine (as sulfate), 3 mg./kg. intraperitoneally. As to conditions: Mus musculus, po, 4 h, read-out: effective dosage ED50, antagonism to strychnine. The protocol: Antagonism to strychnine (as sulfate): The effective dosage ED50 of 8-chloro-1-methyl-6-phenyl-4H-s-triazolo[4,3-a][1,4]benzodiazepine is 1 mg./kg. orally in mice. The test consists in orally administering into groups of 6 mice the test compound, 8-chloro-1-methyl-6-phenyl-4H-s-triazolo[4,3-a][1,4]benzodiazepine, and 30 minutes later 3 mg./kg. strychnine sulfate intraperitoneally. The survivors after 4 hours reflect the activity of the compound as a muscle relaxant and antispasmodic. A dosage of 3 mg./kg. of strychnine sulfate is routinely fatal to all the control mice.

[6] abbreviates: ip, intraperitoneal injection, table 1, read-out: ED50 D (dish test).
Where [7] appears, read: ip, intraperitoneal injection, table 1, read-out: ED50 P (pedestal test).
Where [8] appears, read: ip, intraperitoneal injection, table 1, read-out: ED50 Ni (nicotine antagonism (3) test).
Where [9] appears, read: intraperitoneal injection, table 1, read-out: ED50 Ch (chimney test).

Consider `Cc1nnc2n1-c1ccc(C(F)(F)F)cc1C(c1ccccc1)=NC2` [1-methyl-6-phenyl-8-(trifluoromethyl)-4H-s-triazolo[4,3-a][1,4]benzodiazepine], for which the ED50 in the experiment with mice [1] (setting [6]) was found to be 0.16 mg/kg; in the experiment with mice [2] (setting [7]) it was 0.22 mg/kg; in the experiment with mice [3] (setting [8]) it was 0.08 mg/kg; with mice [4] (setting [9]), 0.16 mg/kg.
For the compound `CCc1nnc2n1-c1ccc(Cl)cc1C(c1ccccc1)=NC2` [8-Chloro-1-ethyl-6-phenyl-4H-s-triazolo[4,3-a]-[1,4]benzodiazepine], the ED50 with mice [1] (setting [6]) was found to be 0.9 mg/kg; in the experiment on mice [2] (setting [7]) it was 0.9 mg/kg; with mice [3] (setting [8]) it was 0.2 mg/kg; in the experiment on mice [4] (setting [9]), 0.8 mg/kg.
Regarding `Cc1nnc2n1-c1ccc(Cl)cc1C(c1ccccc1Cl)=NC2` [8-Chloro-1-methyl-6-(o-chlorophenyl)-4H-s-triazolo[4,3-a][1,4]benzodiazepin], the ED50 worked out at 0.028 mg/kg in the experiment with mice [1] (setting [6]), 0.045 mg/kg in the experiment on mice [2] (setting [7]), 0.008 mg/kg in the experiment on mice [3] (setting [8]) and 0.05 mg/kg with mice [4] (setting [9]).
The like results for `Cc1nnc2n1-c1ccc(Cl)cc1C(c1c(F)cccc1F)=NC2` [8-chloro-1-methyl-6-(2,6-difluorophenyl)-4H-s-triazolo[4,3-a][1,4]benzodiazepine] were, in that order, 0.016 mg/kg, 0.02 mg/kg, 0.018 mg/kg and 0.009 mg/kg.
In the same order, the values of `Cc1nnc2n1-c1ccc(Cl)cc1C(c1ccccc1F)=NC2` [8-chloro-1-methyl-6-(o-fluorophenyl)-4H-s-triazolo[4,3-a][1,4]benzodiazepine] are 0.016 mg/kg, 0.028 mg/kg, 0.009 mg/kg and 0.056 mg/kg.
For `Cc1nnc2n1-c1ccc(Cl)cc1C(c1ccccc1)=NC2` [8-chloro-1-methyl-6-phenyl-4H-s-triazolo[4,3-a][1,4]benzodiazepine], the ED50 in the experiment on mice [5] amounted to 1 mg/kg; with mice [1] (ip, intraperitoneal administration, mice, read-out: ED50, dish test), 0.15 mg/kg; with mice [1] (oral, mice, read-out: oral ED50, dish test) it was 0.045 mg/kg; in the experiment with mice [2] (ip, intraperitoneal administration, mice, read-out: ED50, pedestal test) it was 0.2 mg/kg; in the experiment on mice [2] (oral administration, mice, read-out: ED50, pedestal test), 0.9 mg/kg; with mice [3] (ip, intraperitoneal, 30 minutes before nicotine salicylate 2 mg./kg., mice, read-out: intraperitoneal dosage that protected 50% of the mice against (2) tonic extensor fits and (3) death (ED50)), 0.1 mg/kg. The 50% effective dose (ED50) in the experiment on mice [3] (oral, before nicotine salicylate 2 mg./kg., mice, read-out: oral ED50, nicotine antagonism) came to 0.04 mg/kg; with mice [4] (intraperitoneal, mice, read-out: effective intraperitoneal dosage for 50% of mice (ED50), chimney test), 0.09 mg/kg.
Regarding `Clc1ccc2c(c1)C(c1ccccc1)=NCc1nncn1-2` [8-chloro-6-phenyl-4H-s-triazolo[4,3-a][1,4]benzodiazepine], the median effective dose (ED50) with mice [1] (setting [6]) turned out to be 0.4 mg/kg; in the experiment with mice [2] (setting [7]), 0.7 mg/kg; with mice [3] (setting [8]) it was 0.08 mg/kg; in the experiment on mice [4] (setting [9]), 0.25 mg/kg.

A word on the ED50: it is the midpoint of the dose-response relation.
